Laboratory results published in patent publication US9326506B2, “Preparation method, agricultural composition and applications of natural brassinolide analogs” (CHENGDU NEWSUN CROPSCIENCE CO., LTD, priority 2012, dated 2016).

System: rice
Test: Low temperature assay on rice seedlings
Assay type: in vivo
Experimental: According to a low temperature assay, we measured parameters including plant height, number of leaf, area of leaf, number of tiller, weight of root at low temperature to completely determine effects of the natural brassinolide analogues on the resistance to low temperature of a plant.
The natural brassinolide analogues, BR1, BR2, BR3, BR4, BR5 and BR6, used herein, were those prepared by the method of Example 1. Respectively the analogues were dissolved into 95% (V/V) ethanol solution, and then diluted with pure water to 1 mg/L, 0.1 mg/L, 0.01 mg/L, 0.001 mg/L and 0.0001 mg/L. In addition, pure water was used as a control.
After rice seeds were disinfected by using 5% sodium hypochlorite solution treatment, they were rinsed with distilled water until their pH>7, placed into a petri dish in a dark incubator, and cultured by using water at 30° C.±2° C. for 9 days. Then respectively the nine-day-old etiolated seedlings of rice were immersed in the above solutions containing different concentrations of the natural brassinolide analogues or pure water, and cultured at the temperature of 1° C., 2° C., 3° C., 4° C. and 5° C. for 24 hr. The parameters including plant height, area of leaf and weight of root after 3, 6, 9 and 12 days and number of leaf and number of tiller after 12 days were measured.

CC(C)C[C@@H](O)[C@H](O)[C@@H](C)[C@H]1CCC2C3CC(=O)C4C[C@H](O)[C@H](O)C[C@]4(C)C3CC[C@@]21C (stereo partly shown) [BR5]
8 cm: Height (0.001 mg/l, 5 °C, 12 days)
13.4 cm^2: Area of leaf (0.0001 mg/l, 4 °C, 12 days) | Area of leaf (0.01 mg/l, 2 °C, 12 days)
2: Number of tiller (0.0001 mg/l, 3 °C, 12 days) | Number of tiller (0.0001 mg/l, 4 °C, 12 days) | Number of tiller (0.0001 mg/l, 5 °C, 12 days) | Number of tiller (0.001 mg/l, 3 °C, 12 days) | Number of tiller (0.001 mg/l, 4 °C, 12 days)
14 cm^2: Area of leaf (0.0001 mg/l, 5 °C, 12 days) | Area of leaf (0.001 mg/l, 5 °C, 6 days)
7 cm: Height (0.0001 mg/l, 1 °C, 9 days) | Height (0.0001 mg/l, 2 °C, 6 days) | Height (0.001 mg/l, 3 °C, 3 days) | Height (0.001 mg/l, 3 °C, 6 days)
7.5 cm: Height (0.0001 mg/l, 3 °C, 12 days) | Height (0.0001 mg/l, 4 °C, 9 days) | Height (0.0001 mg/l, 5 °C, 9 days) | Height (0.001 mg/l, 4 °C, 9 days) | Height (0.001 mg/l, 4 °C, 12 days) | Height (0.001 mg/l, 5 °C, 6 days) | Height (0.01 mg/l, 1 °C, 12 days) | Height (0.01 mg/l, 2 °C, 9 days) | Height (0.01 mg/l, 2 °C, 12 days)
6.9 cm: Height (0.0001 mg/l, 1 °C, 6 days) | Height (0.0001 mg/l, 3 °C, 3 days) | Height (0.0001 mg/l, 4 °C, 3 days) | Height (0.001 mg/l, 1 °C, 3 days) | Height (0.001 mg/l, 2 °C, 3 days)
12.8 cm^2: Area of leaf (0.001 mg/l, 1 °C, 9 days)
3 g: Weight of root (0.01 mg/l, 2 °C, 6 days) | Weight of root (0.01 mg/l, 2 °C, 9 days)
11.7 cm^2: Area of leaf (0.0001 mg/l, 2 °C, 6 days) | Area of leaf (0.0001 mg/l, 4 °C, 6 days)
3.2 g: Weight of root (0.0001 mg/l, 2 °C, 9 days) | Weight of root (0.001 mg/l, 2 °C, 9 days) | Weight of root (0.01 mg/l, 2 °C, 12 days)
12 cm^2: Area of leaf (0.0001 mg/l, 1 °C, 9 days) | Area of leaf (0.0001 mg/l, 5 °C, 6 days) | Area of leaf (0.001 mg/l, 3 °C, 6 days) | Area of leaf (0.01 mg/l, 1 °C, 9 days) | Area of leaf (0.01 mg/l, 3 °C, 6 days)
7.7 cm: Height (0.0001 mg/l, 5 °C, 12 days)
13.2 cm^2: Area of leaf (0.0001 mg/l, 3 °C, 12 days) | Area of leaf (0.0001 mg/l, 5 °C, 9 days)
12.2 cm^2: Area of leaf (0.001 mg/l, 2 °C, 9 days) | Area of leaf (0.01 mg/l, 3 °C, 9 days)
3.3 g: Weight of root (0.001 mg/l, 1 °C, 9 days)
2.8 g: Weight of root (0.0001 mg/l, 1 °C, 3 days) | Weight of root (0.0001 mg/l, 2 °C, 3 days) | Weight of root (0.001 mg/l, 1 °C, 3 days) | Weight of root (0.001 mg/l, 2 °C, 3 days) | Weight of root (0.001 mg/l, 5 °C, 3 days) | Weight of root (0.01 mg/l, 1 °C, 3 days) | Weight of root (0.01 mg/l, 2 °C, 3 days)
3: Number of leaf (0.0001 mg/l, 1 °C, 12 days) | Number of tiller (0.0001 mg/l, 1 °C, 12 days) | Number of leaf (0.0001 mg/l, 2 °C, 12 days) | Number of tiller (0.0001 mg/l, 2 °C, 12 days) | Number of leaf (0.0001 mg/l, 3 °C, 12 days) | Number of leaf (0.0001 mg/l, 4 °C, 12 days) | Number of leaf (0.0001 mg/l, 5 °C, 12 days) | Number of leaf (0.001 mg/l, 1 °C, 12 days) | Number of tiller (0.001 mg/l, 1 °C, 12 days) | Number of leaf (0.001 mg/l, 2 °C, 12 days) | Number of tiller (0.001 mg/l, 2 °C, 12 days) | Number of leaf (0.001 mg/l, 3 °C, 12 days) | Number of leaf (0.001 mg/l, 4 °C, 12 days) | Number of leaf (0.001 mg/l, 5 °C, 12 days) | Number of tiller (0.001 mg/l, 5 °C, 12 days) | Number of leaf (0.01 mg/l, 1 °C, 12 days) | Number of tiller (0.01 mg/l, 1 °C, 12 days) | Number of leaf (0.01 mg/l, 2 °C, 12 days) | Number of tiller (0.01 mg/l, 2 °C, 12 days)
10 cm^2: Area of leaf (0.0001 mg/l, 2 °C, 3 days) | Area of leaf (0.0001 mg/l, 3 °C, 3 days) | Area of leaf (0.0001 mg/l, 4 °C, 3 days) | Area of leaf (0.001 mg/l, 3 °C, 3 days) | Area of leaf (0.001 mg/l, 4 °C, 3 days)
12.1 cm^2: Area of leaf (0.001 mg/l, 4 °C, 6 days) | Area of leaf (0.01 mg/l, 2 °C, 9 days)
11.2 cm^2: Area of leaf (0.0001 mg/l, 1 °C, 6 days)
12.3 cm^2: Area of leaf (0.0001 mg/l, 3 °C, 9 days)
7.1 cm: Height (0.0001 mg/l, 2 °C, 9 days) | Height (0.001 mg/l, 1 °C, 6 days) | Height (0.001 mg/l, 2 °C, 6 days) | Height (0.001 mg/l, 4 °C, 3 days) | Height (0.01 mg/l, 2 °C, 3 days) | Height (0.01 mg/l, 3 °C, 3 days)
11.1 cm^2: Area of leaf (0.01 mg/l, 2 °C, 6 days)
2.5 g: Weight of root (0.0001 mg/l, 3 °C, 3 days) | Weight of root (0.0001 mg/l, 4 °C, 3 days) | Weight of root (0.0001 mg/l, 5 °C, 3 days) | Weight of root (0.001 mg/l, 3 °C, 3 days) | Weight of root (0.001 mg/l, 4 °C, 3 days) | Weight of root (0.01 mg/l, 3 °C, 3 days)
2.9 g: Weight of root (0.0001 mg/l, 3 °C, 9 days) | Weight of root (0.0001 mg/l, 3 °C, 12 days) | Weight of root (0.0001 mg/l, 4 °C, 12 days) | Weight of root (0.0001 mg/l, 5 °C, 9 days) | Weight of root (0.001 mg/l, 3 °C, 9 days) | Weight of root (0.001 mg/l, 3 °C, 12 days) | Weight of root (0.001 mg/l, 4 °C, 9 days) | Weight of root (0.001 mg/l, 4 °C, 12 days) | Weight of root (0.001 mg/l, 5 °C, 6 days)
7.3 cm: Height (0.0001 mg/l, 4 °C, 6 days) | Height (0.001 mg/l, 1 °C, 12 days) | Height (0.001 mg/l, 2 °C, 9 days) | Height (0.001 mg/l, 2 °C, 12 days) | Height (0.001 mg/l, 3 °C, 9 days) | Height (0.001 mg/l, 4 °C, 6 days) | Height (0.01 mg/l, 1 °C, 9 days)
7.4 cm: Height (0.0001 mg/l, 2 °C, 12 days) | Height (0.0001 mg/l, 3 °C, 9 days) | Height (0.001 mg/l, 3 °C, 12 days)
3.0 g: Weight of root (0.0001 mg/l, 2 °C, 6 days) | Weight of root (0.0001 mg/l, 5 °C, 12 days) | Weight of root (0.001 mg/l, 2 °C, 6 days) | Weight of root (0.001 mg/l, 5 °C, 9 days) | Weight of root (0.01 mg/l, 1 °C, 6 days)
10.1 cm^2: Area of leaf (0.001 mg/l, 1 °C, 3 days) | Area of leaf (0.01 mg/l, 1 °C, 3 days) | Area of leaf (0.01 mg/l, 2 °C, 3 days)
3.9 g: Weight of root (0.001 mg/l, 1 °C, 12 days) | Weight of root (0.001 mg/l, 2 °C, 12 days) | Weight of root (0.01 mg/l, 1 °C, 12 days)
6.8 cm: Height (0.0001 mg/l, 1 °C, 3 days) | Height (0.0001 mg/l, 2 °C, 3 days)
11.8 cm^2: Area of leaf (0.0001 mg/l, 3 °C, 6 days)
2.7 g: Weight of root (0.0001 mg/l, 4 °C, 9 days) | Weight of root (0.0001 mg/l, 5 °C, 6 days)
15.4 cm^2: Area of leaf (0.001 mg/l, 5 °C, 9 days)
7.6 cm: Height (0.0001 mg/l, 4 °C, 12 days) | Height (0.001 mg/l, 5 °C, 9 days)
3.6 g: Weight of root (0.0001 mg/l, 1 °C, 12 days)
16 cm^2: Area of leaf (0.001 mg/l, 5 °C, 12 days)
7.0 cm: Height (0.0001 mg/l, 5 °C, 3 days) | Height (0.01 mg/l, 1 °C, 3 days)
7.2 cm: Height (0.0001 mg/l, 1 °C, 12 days) | Height (0.0001 mg/l, 3 °C, 6 days) | Height (0.0001 mg/l, 5 °C, 6 days) | Height (0.001 mg/l, 1 °C, 9 days) | Height (0.001 mg/l, 5 °C, 3 days) | Height (0.01 mg/l, 1 °C, 6 days) | Height (0.01 mg/l, 2 °C, 6 days) | Height (0.01 mg/l, 3 °C, 6 days)
10.2 cm^2: Area of leaf (0.0001 mg/l, 5 °C, 3 days) | Area of leaf (0.001 mg/l, 5 °C, 3 days) | Area of leaf (0.01 mg/l, 3 °C, 3 days)
13.1 cm^2: Area of leaf (0.0001 mg/l, 1 °C, 12 days) | Area of leaf (0.001 mg/l, 2 °C, 12 days)
13.5 cm^2: Area of leaf (0.001 mg/l, 4 °C, 12 days)
12.4 cm^2: Area of leaf (0.0001 mg/l, 2 °C, 9 days) | Area of leaf (0.001 mg/l, 3 °C, 9 days)
9.8 cm^2: Area of leaf (0.0001 mg/l, 1 °C, 3 days) | Area of leaf (0.001 mg/l, 2 °C, 3 days)
3.1 g: Weight of root (0.0001 mg/l, 1 °C, 6 days) | Weight of root (0.001 mg/l, 1 °C, 6 days) | Weight of root (0.01 mg/l, 1 °C, 9 days)
11.6 cm^2: Area of leaf (0.001 mg/l, 2 °C, 6 days) | Area of leaf (0.01 mg/l, 1 °C, 6 days)
13 cm^2: Area of leaf (0.0001 mg/l, 2 °C, 12 days) | Area of leaf (0.0001 mg/l, 4 °C, 9 days) | Area of leaf (0.001 mg/l, 1 °C, 12 days) | Area of leaf (0.001 mg/l, 3 °C, 12 days) | Area of leaf (0.001 mg/l, 4 °C, 9 days)
11.3 cm^2: Area of leaf (0.001 mg/l, 1 °C, 6 days)
2.6 g: Weight of root (0.0001 mg/l, 3 °C, 6 days) | Weight of root (0.0001 mg/l, 4 °C, 6 days) | Weight of root (0.001 mg/l, 3 °C, 6 days) | Weight of root (0.001 mg/l, 4 °C, 6 days) | Weight of root (0.01 mg/l, 3 °C, 6 days)
13.6 cm^2: Area of leaf (0.01 mg/l, 1 °C, 12 days)
3.4 g: Weight of root (0.0001 mg/l, 1 °C, 9 days) | Weight of root (0.0001 mg/l, 2 °C, 12 days) | Weight of root (0.001 mg/l, 5 °C, 12 days)
